In patent US20110060057A1, “Inhibition of the Survival of Skin Cancer by Cyclohexenone Compounds from Antrodia Camphorata” (GOLDEN BIOTECHNOLOGY CORPORATION, priority 2009, published 2011) one finds IC50 data, which are given here for 1 compound.

SMILES strings stand for the structures.

The test concerns skin cancer cell line A431. Nature of the test: In vitro survival assay (MTT) for anti-skin cancer effects. In kind it is cell-based. The conditions noted are these: A-431, A431 human epidermoid carcinoma cell line, 48 hours treatment, read-out: IC50 (half inhibition concentration), survival of skin cancer cells. As for the experimental part: Inhibiting effects of skin cancer cells by cyclohexenone compounds of Antrodia camphorata from example 1 were assessed according to the anticancer-drug screening model of National Cancer Institute (NCI). The compound 4-hydroxy-2,3-dimethoxy-6-methyl-5 -(3,7,11-trimethyl-dodeca-2,6,10-trienyl)-cyclohex-2-enone from example 1 was added into the culture media of skin cancer cell line A431 to determine the survival rates. Survival of cell was analyzed using MTT assay. A431 cell line was a human epidermoid carcinoma cell line.
MTT assay is commonly used to analyze cell proliferation, survival rate of viable cells and cytotoxicity. MTT (3[4,5-dimethylthiazol-2-yl]-2,5-diphenyltetrazolium bromide) is a yellow dye which can be converted to water-insoluble purple formazan on the reductive cleavage of its tetrazolium ring by the succinate tetrazolium reductase in mitochondria of cells. The amount of formazan produced is used to detect the number of viable cells and calculate the survival rates. […]
Afterward, 2.5 mg/ml of MTT solution was added to each well and incubated in the dark for 4 hours, followed by the addition of 100 μl of lysis buffer to stop the reaction. The absorbances were measured at 570 nm with an ELISA Reader to determine the survival rates.

`COC1=C(OC)C(O)C(C/C=C(\C)CC/C=C(\C)CCC=C(C)C)C(C)C1=O` (stereo not shown) [formula 2, 4-hydroxy-2,3-dimethoxy-6-methyl-5-(3,7,11-trimethyl-dodeca-2,6,10-trienyl)-cyclohex-2-enone]: the IC50 is 0.18 µg/mL.
